From BindingDB's records for doi:10.1046/j.1471-4159.1997.68062263.x (Dynamique Des Systemes Neuroendocriniens, 1997)
Numbered stars: 1 amine (or outer) side, 2 acyl side, 3 side chain; on linkers, the order of the positions; unused ones are H or OH. Bridge positions count the residues as written; N and C are the ends. Square brackets hold non-standard residues; d marks the D form. Peptide text beside a SMILES is read from it. ξ: configuration not given here. Phe(4-CH2NHiPr) = CC(C)NCc1ccc(C[C@H](N)C(=O)O)cc1; X1 = CC(C)NCc1ccc(C[C@@H](N[*:1])C(=O)[*:2])cc1; d1Nal = N[C@H](Cc1cccc2ccccc12)C(=O)O; Thr(3ξ) = CC(O)[C@H](N)C(=O)O; ξF = NC(Cc1ccccc1)C(=O)O; ξK = NCCCCC(N)C(=O)O; ξT = CC(O)C(N)C(=O)O

How the values were obtained:
[1] = biological target: T1, Somatostatin receptor type 5 (Rattus norvegicus, UniProt P30938)
T1 sequence (P30938 whole entry): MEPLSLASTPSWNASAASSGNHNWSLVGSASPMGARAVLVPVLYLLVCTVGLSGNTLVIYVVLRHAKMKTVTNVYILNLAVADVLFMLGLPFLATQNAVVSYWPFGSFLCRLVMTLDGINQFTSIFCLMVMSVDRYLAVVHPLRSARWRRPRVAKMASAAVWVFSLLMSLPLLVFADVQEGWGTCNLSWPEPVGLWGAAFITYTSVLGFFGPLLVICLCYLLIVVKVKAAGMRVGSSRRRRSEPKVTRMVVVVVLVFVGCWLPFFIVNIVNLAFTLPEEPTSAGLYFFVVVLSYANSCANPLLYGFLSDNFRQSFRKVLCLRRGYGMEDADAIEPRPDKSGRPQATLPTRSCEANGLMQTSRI

[2] = biological target: Somatostatin receptor type 4 (Rattus norvegicus, UniProt P30937)
[3] = biological target: Somatostatin receptor type 3 (Rattus norvegicus, UniProt P30936)
[4] = biological target: Somatostatin receptor type 2 (Rattus norvegicus, UniProt P30680)
[5] = biological target: Somatostatin receptor type 1 (Rattus norvegicus, UniProt P28646)
Somatostatin receptor type 1, sequence (P28646 whole entry): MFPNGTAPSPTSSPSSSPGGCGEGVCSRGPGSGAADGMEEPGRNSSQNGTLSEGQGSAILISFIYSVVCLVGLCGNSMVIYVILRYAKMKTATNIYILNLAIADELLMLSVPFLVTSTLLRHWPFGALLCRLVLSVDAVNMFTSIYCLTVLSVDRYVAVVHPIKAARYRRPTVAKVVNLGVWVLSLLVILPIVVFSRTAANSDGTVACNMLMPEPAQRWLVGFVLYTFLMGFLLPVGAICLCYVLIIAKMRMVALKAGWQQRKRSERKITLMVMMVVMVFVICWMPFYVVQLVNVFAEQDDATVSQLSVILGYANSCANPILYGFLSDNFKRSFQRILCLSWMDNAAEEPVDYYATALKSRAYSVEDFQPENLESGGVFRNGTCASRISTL

Somatostatin receptor type 2, sequence (P30680 whole entry): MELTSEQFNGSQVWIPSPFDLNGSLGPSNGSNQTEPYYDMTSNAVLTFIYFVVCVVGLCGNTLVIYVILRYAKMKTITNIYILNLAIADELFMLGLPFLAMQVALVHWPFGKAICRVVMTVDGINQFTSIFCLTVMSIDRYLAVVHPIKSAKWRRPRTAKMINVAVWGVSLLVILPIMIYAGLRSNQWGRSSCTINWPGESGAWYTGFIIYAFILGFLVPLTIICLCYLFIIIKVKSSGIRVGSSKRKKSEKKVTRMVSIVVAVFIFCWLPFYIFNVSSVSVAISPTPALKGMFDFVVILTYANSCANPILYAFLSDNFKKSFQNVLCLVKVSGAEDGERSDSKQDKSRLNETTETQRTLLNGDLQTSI
Somatostatin receptor type 3, sequence (P30936 whole entry): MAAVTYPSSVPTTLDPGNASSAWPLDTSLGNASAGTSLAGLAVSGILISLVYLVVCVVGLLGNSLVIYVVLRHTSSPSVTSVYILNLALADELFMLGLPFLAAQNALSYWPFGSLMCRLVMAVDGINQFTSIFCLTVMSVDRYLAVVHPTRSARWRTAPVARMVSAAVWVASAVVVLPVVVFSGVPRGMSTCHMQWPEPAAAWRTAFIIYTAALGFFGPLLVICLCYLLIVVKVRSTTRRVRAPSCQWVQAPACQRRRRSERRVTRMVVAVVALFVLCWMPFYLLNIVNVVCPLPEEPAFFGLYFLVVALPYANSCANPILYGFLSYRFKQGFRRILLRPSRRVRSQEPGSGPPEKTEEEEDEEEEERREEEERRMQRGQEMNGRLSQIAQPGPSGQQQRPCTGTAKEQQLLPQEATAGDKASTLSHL
Somatostatin receptor type 4, sequence (P30937 whole entry): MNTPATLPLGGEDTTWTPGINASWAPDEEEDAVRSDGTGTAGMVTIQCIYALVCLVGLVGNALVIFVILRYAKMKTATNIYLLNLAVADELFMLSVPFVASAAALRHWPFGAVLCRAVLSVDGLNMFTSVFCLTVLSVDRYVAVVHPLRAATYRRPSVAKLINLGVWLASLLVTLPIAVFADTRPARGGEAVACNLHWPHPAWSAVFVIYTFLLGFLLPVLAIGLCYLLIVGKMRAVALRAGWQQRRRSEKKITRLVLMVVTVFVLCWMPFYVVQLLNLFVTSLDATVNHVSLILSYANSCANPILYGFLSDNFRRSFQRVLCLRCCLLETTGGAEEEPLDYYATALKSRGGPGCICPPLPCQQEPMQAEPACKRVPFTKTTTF

| Compound | Ki [1] | Ki [2] | Ki [3] | Ki [4] | Ki [5] |
| --- | --- | --- | --- | --- | --- |
| C[C@H](N)C(=O)NCC(=O)N[C@@H]1CSSC[C@@H](C(=O)O)NC(=O)[C@H](CO)NC(=O)[C@@H]([C@@H](C)O)NC(=O)[C@H](Cc2ccccc2)NC(=O)[C@@H]([C@@H](C)O)NC(=O)[C@H](CCCCN)NC(=O)[C@@H](Cc2c[nH]c3ccccc23)NC(=O)[C@H](Cc2ccccc2)NC(=O)[C@@H](Cc2ccccc2)NC(=O)[C@H](CC(N)=O)NC(=O)[C@@H](CCCCN)NC1=O | 2.6 nM |  |  |  |  |
| CC(C)[C@H](NC(=O)[C@H](CCCCN)NC(=O)[C@@H](Cc1c[nH]c2ccccc12)NC(=O)[C@H](Cc1ccc(O)cc1)NC(=O)[C@H](Cc1ccccc1)NC(=O)[C@@H](N)Cc1ccccc1)C(=O)N[C@@H](Cc1ccccc1)C(=O)N[C@H](Cc1cccc2ccccc12)C(N)=O [BIM 23056] (H-FFY[dW]KVF[d1Nal]-NH2) | 32.5 nM |  |  |  |  |
| CC(C)[C@H](NC(=O)[C@H](CCCCN)NC(=O)[C@@H](Cc1c[nH]c2ccccc12)NC(=O)[C@H](Cc1ccc(O)cc1)NC(=O)[C@H](Cc1ccccc1)NC(=O)[C@H](N)Cc1ccccc1)C(=O)N[C@@H](Cc1ccccc1)C(=O)N[C@H](Cc1cccc2ccccc12)C(N)=O [BIM 23056] (H-[dF]FY[dW]KVF[d1Nal]-NH2) |  | 83.8 nM | 380 nM | 835 nM | 301 nM |
| C[C@@H](O)[C@H](NC(=O)[C@H](Cc1ccccc1)NC(=O)[C@@H](NC(=O)[C@H](CCCCN)NC(=O)[C@@H](Cc1c[nH]c2ccccc12)NC(=O)[C@H](Cc1ccccc1)NC(=O)[C@H](Cc1ccccc1)NC(=O)[C@H](N)Cc1ccccc1)[C@@H](C)O)C(N)=O [CAS_133073-82-2] (H-[dF]FF[dW]KTFT-NH2) | 8.2 nM | 8.4 nM | 4.6 nM | 163 nM |  |
| CC(C)NCc1ccc(C[C@@H]2NC(=O)[C@@H](Cc3c[nH]c4ccccc34)NC(=O)[C@H](Cc3ccccc3)NC(=O)[C@H](Cc3ccccc3)NC(=O)[C@H](CCCCN)NC(=O)[C@@H](N)CSSC[C@@H](C(=O)O)NC(=O)[C@H](CO)NC(=O)[C@H]([C@@H](C)O)NC(=O)[C@H](Cc3ccccc3)NC(=O)[C@H]([C@@H](C)O)NC2=O)cc1 [CH-275] (H-CKFF[dW][Phe(4-CH2NHiPr)]TFTSC-OH; disulfide 1-11) |  | 465 nM | 577 nM | 1000 nM | 45.7 nM |
| CC(C)NCc1ccc(C[C@H]2NC(=O)[C@H](Cc3c[nH]c4ccccc34)NC(=O)C(Cc3ccccc3)NC(=O)C(Cc3ccccc3)NC(=O)C(CCCCN)NC(=O)[C@H](N)CSSC[C@H](C(=O)O)NC(=O)[C@@H](CO)NC(=O)[C@H](C(C)O)NC(=O)[C@@H](Cc3ccccc3)NC(=O)C(C(C)O)NC2=O)cc1 (stereo not given in full) [CH-275] (H-[dC][ξK][ξF][ξF]W[X1][ξT][dF][Thr(3ξ)][dS][dC]-OH; disulfide 1-11) | 279 nM |  |  |  |  |
